In brackets after ≈: the same amount, converted by molar mass.
Tests used:
[1] = Octanol-buffer partition coefficient, log D of the compound at pH 7.4 by shake-flask method
Albumin [2] = target: T1, Albumin (Homo sapiens, UniProt P02768); conditions: isolated protein
Description: Binding affinity to fatty acid-free human serum albumin by equilibrium dialysis

Albumin [3] = target: T1, Albumin; conditions: isolated protein; remark: listed apart in the source
Description: Binding affinity to fatty acid-containing human serum albumin by equilibrium dialysis

[4] = Lipophilicity, log P of the compound in octanol
[5] = Dissociation constant, pKa of the compound by spectrophotometric titration; assay type: physicochemical
physchem = conditions: phosphate buffer, pH 7.4
Description: Aqueous solubility of the compound in phosphate buffer solution of pH 7.4 after 24 hrs by LC-UV analysis

[6] = target: T2, human serum albumin site 1 (Homo sapiens, UniProt P02768); test: in vitro; conditions: pH 7.4, probe warfarin
T2 sequence (P02768 whole entry): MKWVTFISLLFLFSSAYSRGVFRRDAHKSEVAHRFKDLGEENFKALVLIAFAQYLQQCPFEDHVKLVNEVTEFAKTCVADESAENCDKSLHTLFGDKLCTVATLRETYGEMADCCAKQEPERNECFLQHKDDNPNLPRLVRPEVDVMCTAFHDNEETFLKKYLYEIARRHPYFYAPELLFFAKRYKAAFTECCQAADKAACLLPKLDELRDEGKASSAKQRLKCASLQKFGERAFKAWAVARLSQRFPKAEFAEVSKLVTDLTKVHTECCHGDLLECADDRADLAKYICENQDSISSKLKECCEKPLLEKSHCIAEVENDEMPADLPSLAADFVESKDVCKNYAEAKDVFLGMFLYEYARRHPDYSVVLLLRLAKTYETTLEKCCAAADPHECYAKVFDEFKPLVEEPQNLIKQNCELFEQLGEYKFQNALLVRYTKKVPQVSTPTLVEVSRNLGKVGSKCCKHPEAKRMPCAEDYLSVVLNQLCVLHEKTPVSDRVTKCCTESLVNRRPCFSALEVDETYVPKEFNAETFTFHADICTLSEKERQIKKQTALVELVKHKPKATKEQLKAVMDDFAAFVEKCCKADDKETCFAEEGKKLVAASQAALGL
Description: Displacement of radiolabeled warfarin from human serum albumin site 1 in phosphate buffer at pH 7.4 at 100 uM by fluorescence spectroscopy

[7] = target: T3, human serum albumin site 2 (Homo sapiens, UniProt P02768); test: in vitro; conditions: pH 7.4, probe dansylsarcosine
T3 sequence (P02768 whole entry): as above
Description: Displacement of radiolabeled dansylsarcosine from human serum albumin site 2 in phosphate buffer at pH 7.4 at 100 uM by fluorescence spectroscopy

[8] = target: T3, human serum albumin site 2; test: in vitro; conditions: fatty acid-free human serum albumin, pH 7.4, probe dansylsarcosine
Description: Displacement of radiolabeled dansylsarcosine from fatty acid-free human serum albumin site 2 in phosphate buffer at pH 7.4 at 12 uM by fluorescence spectroscopy

[9] = target: T3, human serum albumin site 2; test: in vitro; conditions: fatty acid containing human serum albumin, pH 7.4, probe dansylsarcosine
Description: Displacement of radiolabeled dansylsarcosine from fatty acid containing human serum albumin site 2 in phosphate buffer at pH 7.4 at 12 uM by fluorescence spectroscopy

[10] = target: T2, human serum albumin site 1; test: in vitro; conditions: fatty acid containing human serum albumin, pH 7.4, probe warfarin
Description: Displacement of radiolabeled warfarin from fatty acid containing human serum albumin site 1 in phosphate buffer at pH 7.4 at 12 uM by fluorescence spectroscopy

[11] = target: T2, human serum albumin site 1; test: in vitro; conditions: fatty acid-free human serum albumin, pH 7.4, probe warfarin
Description: Displacement of radiolabeled warfarin from fatty acid-free human serum albumin site 1 in phosphate buffer at pH 7.4 at 12 uM by fluorescence spectroscopy

Albumin [12] = target: T1, Albumin; test: Binding affinity to human serum albumin by equilibrium dialysis; assay type: ADME; conditions: isolated protein
[13] = target: T3, human serum albumin site 2; test: Displacement of […] dansylsarcosine from human serum albumin site 2 in phosphate buffer at pH 7.4 at 4 uM by fluorescence spectroscopy; conditions: pH 7.4, probe dansylsarcosine, read-out: Activity
[14] = target: T2, human serum albumin site 1; test: Displacement of […] warfarin from human serum albumin site 1 in phosphate buffer at pH 7.4 at 4 uM by fluorescence spectroscopy; conditions: pH 7.4, probe warfarin, read-out: Activity

T1 sequence (P02768 whole entry): as above

Compound	inhibition at 12 µM [8]	inhibition at 12 µM [9]	inhibition at 12 µM [10]	inhibition at 12 µM [11]	also measured
O=C(O)C[C@@H]1c2ccccc2C[C@H]1NC(=O)c1cc2cc(F)ccc2[nH]1	–	–	–	–	logD [1]: 1.26; log Ks (Albumin [2]): 5.97; log Ks (Albumin [3]): 6.11; logP [4]: 4.71; pKa [5]: 3.95; solubility at 24 h (physchem): 1930 µM (≈ 680 µg/mL)
O=C(O)CCC[C@@H]1c2ccccc2C[C@H]1NC(=O)c1cc2cc(F)ccc2[nH]1	–	–	–	–	logD [1]: 1.95; log Ks (Albumin [2]): 5.41; log Ks (Albumin [3]): 5.41; logP [4]: 5.11; pKa [5]: 4.24; solubility at 24 h (physchem): 86 µM (≈ 32.7 µg/mL)
CC(=O)Nc1nc(C)c(-c2cnc(F)c(NS(=O)(=O)c3sc(C)nc3C)c2)s1	–	–	–	–	log Ks (Albumin [2]): 5.88; inhibition at 100 µM [6]: 6%; log Ks (Albumin [3]): 5.62; pKa [5]: 4.71; solubility at 24 h (physchem): > 1700 µM; inhibition at 100 µM [7]: 7%
CC(=O)CC(c1ccc([N+](=O)[O-])cc1)c1c(O)c2ccccc2oc1=O (stereo not given) [ACENOCOUMAROL]	12.5%	39%	54.6%	49.8%	–
NS(=O)(=O)c1cc2c(cc1Cl)N=CNS2(=O)=O [CHLOROTHIAZIDE]	8%	18.8%	16%	28.9%	–
CCCNC(=O)NS(=O)(=O)c1ccc(Cl)cc1 [CHLORPROPAMIDE]	28.5%	26%	18.5%	19.2%	–
O=C1CN=C(c2ccccc2Cl)c2cc([N+](=O)[O-])ccc2N1 [CLONAZEPAM]	16.2%	19.5%	3.8%	0%	–
Cc1onc(-c2ccccc2Cl)c1C(=O)N[C@@H]1C(=O)N2[C@@H]1SC(C)(C)[C@@H]2C(=O)O [CLOXACILLIN]	24.1%	18.1%	5.7%	0%	–
CN(C)c1cccc2c(S(=O)(=O)N(C)CC(=O)O)cccc12 [DANSYLSARCOSINE]	–	–	–	–	log Ks (Albumin [12]): 5.39
O=c1oc2ccccc2c(O)c1Cc1c(O)c2ccccc2oc1=O [DICUMAROL]	88.8%	19.8%	10.5%	86.4%	–
O=C(O)CCC(=O)c1ccc(-c2ccccc2)cc1 [FENBUFEN]	70%	66.2%	0%	0%	–
O=C(O)c1ccccc1Nc1cccc(C(F)(F)F)c1 [FLUFENAMIC ACID]	95.8%	91.2%	68.6%	48.6%	log Ks (Albumin [12]): 6.68; inhibition at 4 µM [13]: 73%; inhibition at 4 µM [14]: 24%
CCN(CC)CCN1C(=O)CN=C(c2ccccc2F)c2cc(Cl)ccc21 [FLURAZEPAM]	4.3%	2.7%	6.3%	0%	log Ks (Albumin [12]): 3.38
NS(=O)(=O)c1cc(C(=O)O)c(NCc2ccco2)cc1Cl [FUROSEMIDE]	19.2%	49%	47.3%	36.2%	–
COc1ccc(Cl)cc1C(=O)NCCc1ccc(S(=O)(=O)NC(=O)NC2CCCCC2)cc1 [GLYBURIDE]	33.9%	62.2%	50.7%	28.6%	solubility at 24 h (physchem): 11 µM (≈ 5.43 µg/mL)
Cc1cc(NC(=O)C2=C(O)c3ccccc3S(=O)(=O)N2C)no1 [ISOXICAM]	33.1%	32.6%	38%	51.7%	–
COc1ccc2cc([C@H](C)C(=O)O)ccc2c1 [NAPROXEN]	91.3%	79.9%	38.8%	24.7%	–
O=C1NC(=O)C(c2ccccc2)(c2ccccc2)N1 [PHENYTOIN]	0%	18.8%	9.3%	4%	–
CC(C)NCC(O)COc1cccc2[nH]ccc12 (stereo not given) [PINDOLOL]	0.2%	9.5%	0%	0%	log Ks (Albumin [12]): 2.65
CN1C(C(=O)Nc2ccccn2)=C(O)c2ccccc2S1(=O)=O [PIROXICAM]	45.5%	44.8%	53.5%	6.7%	–
O=C1C(CC[S+]([O-])c2ccccc2)C(=O)N(c2ccccc2)N1c1ccccc1 (stereo not given) [SULFINPYRAZONE]	18.6%	34.2%	44.1%	35.2%	–
CC/C(=C(\c1ccccc1)c1ccc(OCCN(C)C)cc1)c1ccccc1 [TAMOXIFEN]	16.3%	62.2%	0%	0%	–
CN1C(C(=O)Nc2ccccn2)=C(O)c2sccc2S1(=O)=O [TENOXICAM]	27.4%	38.5%	61.7%	52.3%	–
N[C@@H](Cc1c[nH]c2ccccc12)C(=O)O [TRYPTOPHAN]	15.3%	15.1%	0%	0%	–

From ChEMBL document CHEMBL1799913, “A combined spectroscopic and crystallographic approach to probing drug-human serum albumin interactions” (Bioorg Med Chem, 2010)
